According to ChEMBL document CHEMBL5154690, “Discovery of a tricyclic farnesoid X receptor agonist HEC96719, a clinical candidate for treatment of non-alcoholic steatohepatitis” (Eur J Med Chem, 2022):
pEC50: −log10 of the molar value. Active and inactive are the calls of the source. The rule behind the calls is not given here.

Assays:
[1] = Drug recovery in heart of male Sprague-Dawley rat at 4.5 mg/kg, po administered as C14-lableled compound and assessed as radioactivity and measured at 0.25 hrs; assay type: ADME, organism-based; conditions: in vivo
[2] = Drug recovery in pancreas of male Sprague-Dawley rat at 4.5 mg/kg, po administered as C14-lableled compound and assessed as radioactivity and measured at 24 hrs; assay type: ADME, organism-based; conditions: in vivo
[3] = Volume of distribution at steady state in male Sprague-Dawley rat at 1 mg/kg, iv measured by LC-MS/MS analysis; assay type: ADME, organism-based; conditions: in vivo, read-out: Vdss
[4] = tested on: Mus musculus; test: Anti-NASH activity in western style diet-induced nonalcoholic steatohepatitis model of male C57BL/6 mouse assessed as reduction in NASH activity score (NAS) at 1 mg/kg, po administered once daily from week 32 to 44; assay type: functional, organism-based
[5] = Drug recovery in kidney of male Sprague-Dawley rat at 4.5 mg/kg, po administered as C14-lableled compound and assessed as radioactivity and measured at 6 hrs; assay type: ADME, organism-based; conditions: in vivo
[6] = Drug recovery in stomach of male Sprague-Dawley rat at 4.5 mg/kg, po administered as C14-lableled compound and assessed as radioactivity and measured at 0.25 hrs; assay type: ADME, organism-based; conditions: in vivo
[7] = tested on: Mus musculus; test: Anti-NASH activity against high fat (HF) diet-induced nonalcoholic steatohepatitis in leptin-deficient ob/ob mouse model assessed as reduction in liver cholesterol level at 3 mg/kg, po administered once daily from week 5 to 10; assay type: functional, organism-based
[8] = tested on: Mus musculus; test: Antifibrotic activity in C57BL/6 mouse model of CCI4-induced liver fibrosis assessed as decrease in serum TBIL level at 1 mg/kg, po administered once daily for 4 weeks; assay type: functional, organism-based
[9] = tested on: Mus musculus; test: Anti-NASH activity against high fat (HF) diet-induced nonalcoholic steatohepatitis in leptin-deficient ob/ob mouse model assessed as reduction in serum ALT level at 0.1 to 1 mg/kg, po administered once daily from week 5 to 10; assay type: functional, organism-based; conditions: dose 0.1-1 mg/kg
[10] = Half-life in male C57BL/6 mouse at 2 mg/kg, iv measured by LC-MS/MS analysis; assay type: ADME, organism-based; conditions: in vivo
[11] = tested on: Mus musculus; test: Anti-NASH activity against high fat (HF) diet-induced nonalcoholic steatohepatitis in leptin-deficient ob/ob mouse model assessed as reduction in serum TG level at 0.1 to 1 mg/kg, po administered once daily from week 5 to 10; assay type: functional, organism-based; conditions: dose 0.1-1 mg/kg
[12] = target: T1, Bile acid receptor (Homo sapiens, UniProt Q96RI1); test: Agonist activity at human FXR expressed in HEK293T cells by luciferase reporter assay; assay type: cell-based
T1 sequence (Q96RI1 whole entry): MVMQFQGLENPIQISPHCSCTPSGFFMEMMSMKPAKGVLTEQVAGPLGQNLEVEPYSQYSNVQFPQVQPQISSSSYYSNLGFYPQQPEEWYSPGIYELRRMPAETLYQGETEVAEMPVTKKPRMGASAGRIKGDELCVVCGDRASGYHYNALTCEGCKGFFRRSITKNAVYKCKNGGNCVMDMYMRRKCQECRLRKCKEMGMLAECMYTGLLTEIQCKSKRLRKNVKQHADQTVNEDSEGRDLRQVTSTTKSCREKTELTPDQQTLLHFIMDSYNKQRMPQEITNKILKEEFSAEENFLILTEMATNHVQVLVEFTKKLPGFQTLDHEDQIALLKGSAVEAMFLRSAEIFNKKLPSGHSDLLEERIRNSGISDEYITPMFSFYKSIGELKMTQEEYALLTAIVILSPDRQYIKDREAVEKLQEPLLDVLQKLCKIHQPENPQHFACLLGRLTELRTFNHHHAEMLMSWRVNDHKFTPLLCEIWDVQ

[13] = Drug recovery in lung of male Sprague-Dawley rat at 4.5 mg/kg, po administered as C14-lableled compound and assessed as radioactivity and measured at 6 hrs; assay type: ADME, organism-based; conditions: in vivo
[14] = tested on: Mus musculus; test: Anti-NASH activity against high fat (HF) diet-induced nonalcoholic steatohepatitis in leptin-deficient ob/ob mouse model assessed as reduction in serum TG level at 3 mg/kg, po administered once daily from week 5 to 10; assay type: functional, organism-based
[15] = Drug recovery in ileum of male Sprague-Dawley rat at 4.5 mg/kg, po administered as C14-lableled compound and assessed as radioactivity and measured at 6 hrs; assay type: ADME, organism-based; conditions: in vivo
[16] = Drug recovery in lung of male Sprague-Dawley rat at 4.5 mg/kg, po administered as C14-lableled compound and assessed as radioactivity and measured at 24 hrs; assay type: ADME, organism-based; conditions: in vivo, BLD = below limit of detection
[17] = Drug recovery in liver of male Sprague-Dawley rat at 4.5 mg/kg, po administered as C14-lableled compound and assessed as radioactivity and measured at 6 hrs; assay type: ADME, organism-based; conditions: in vivo
[18] = tested on: Mus musculus; test: Antifibrotic activity in C57BL/6 mouse model of CCI4-induced liver fibrosis assessed as reduction in fibrosis area at 1 mg/kg, po administered once daily for 4 weeks; assay type: functional, organism-based
[19] = Oral bioavailability in male Sprague-Dawley rat at 5 mg/kg measured by LC-MS/MS analysis; assay type: ADME, organism-based; conditions: in vivo
[20] = Drug recovery in lung of male Sprague-Dawley rat at 4.5 mg/kg, po administered as C14-lableled compound and assessed as radioactivity and measured at 0.25 hrs; assay type: ADME, organism-based; conditions: in vivo
[21] = target: T2, Peroxisome proliferator-activated receptor delta (Homo sapiens, UniProt Q03181); test: Agonist activity at PPARdelta (unknown origin)
T2 sequence (Q03181 whole entry): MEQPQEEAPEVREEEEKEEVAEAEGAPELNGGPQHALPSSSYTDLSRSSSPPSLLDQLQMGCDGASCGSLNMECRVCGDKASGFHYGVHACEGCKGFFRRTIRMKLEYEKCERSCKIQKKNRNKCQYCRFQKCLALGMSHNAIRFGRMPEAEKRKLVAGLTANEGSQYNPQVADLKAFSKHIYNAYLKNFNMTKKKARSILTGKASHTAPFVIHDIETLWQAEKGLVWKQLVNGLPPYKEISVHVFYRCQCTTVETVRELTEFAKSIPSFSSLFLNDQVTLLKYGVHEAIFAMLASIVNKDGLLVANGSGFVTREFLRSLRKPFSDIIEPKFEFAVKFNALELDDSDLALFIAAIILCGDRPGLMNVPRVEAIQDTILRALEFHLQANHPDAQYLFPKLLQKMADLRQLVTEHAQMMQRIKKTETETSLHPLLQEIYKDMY

[22] = Drug recovery in pancreas of male Sprague-Dawley rat at 4.5 mg/kg, po administered as C14-lableled compound and assessed as radioactivity and measured at 1 hr; assay type: ADME, organism-based; conditions: in vivo
[23] = AUC (0 to t) in male Sprague-Dawley rat at 1 mg/kg, iv measured by LC-MS/MS analysis; assay type: ADME, organism-based; set-up: dose 1 mg/kg, route iv; conditions: in vivo
[24] = Drug recovery in liver of male Sprague-Dawley rat at 4.5 mg/kg, po administered as C14-lableled compound and assessed as radioactivity and measured at 24 hrs; assay type: ADME, organism-based; conditions: in vivo
[25] = Drug recovery in ileum of male Sprague-Dawley rat at 4.5 mg/kg, po administered as C14-lableled compound and assessed as radioactivity and measured at 24 hrs; assay type: ADME, organism-based; conditions: in vivo

SMILES: O=C(O)c1ccc2c(c1)Oc1ccc(OCc3c(-c4c(Cl)cccc4Cl)noc3C3CC3)nc1C1(CC1)C2
- Drug recovery [1]: 208 ngequiv/g
- Drug recovery [2]: 206 ngequiv/g
- Vd [3]: 0.65 L/kg
- Activity [4]: Active
- Drug recovery [5]: 67.8 ngequiv/g
- Drug recovery [6]: 3213 ngequiv/g
- Activity [7]: Active
- Activity [8]: Active
- Activity [9]: Active
- half-life [10]: 28.2 min
- Activity [11]: Active
- pEC50 [12]: 8.81
- Drug recovery [13]: 63.4 ngequiv/g
- Activity [14]: Active
- Drug recovery [15]: 5620 ngequiv/g
- Drug recovery [16]: Bld
- Drug recovery [17]: 521 ngequiv/g
- Activity [18]: Active
- bioavailability [19]: 50.8%
- Drug recovery [20]: 868 ngequiv/g
- pEC50 [21]: < 5.00
- Drug recovery [22]: 229 ngequiv/g
- AUC(0-t) [23]: 473 ng·h/mL
- Drug recovery [24]: 304 ngequiv/g
- Drug recovery [25]: 1542 ngequiv/g
